Reference: patent US5629469A, “Thiol protease inhibitor” (Sandoz Ltd., priority 1995, dated 1997)

Key:
wCRW larvae = test: Artificial diet bioassay, neonate wCRW larvae; assay type: in vivo; settings: Diabrotica virgifera, 144 h; diet supplemented with 0.01%; mortality at day 6; read-out: % wCRW mortality ± SE
Experimental: Neonate wCRW larvae are allowed to feed on BioServe, a standard artificial diet used for southern corn rootworm. The diet is supplemented with the treatments indicated below in Table 3. Two or 3 larvae are placed in treatment wells with 9 replicate wells used per treatment. The larvae are allowed to feed on the diet and mortality is evaluated at day 6.

[1] = test system: proteolytic activity in the midgut extracts; settings: three species of beetles; cited from earlier work

Structure (SMILES): CC(C)C[C@H](NC(=O)[C@H]1O[C@@H]1C(=O)O)C(=O)NCCCCN=C(N)N [E64, [N-(L-3 transcarrboxyoxiran-2-carbonyl)-L-leucyl]-amido(4-guanido)-butane]
- mortality at 0.01 % (wCRW larvae): 80 ± 8%
- inhibition of proteolytic activity in midgut extracts [1]: much or most of the proteolytic activity in the midgut extracts was inhibited
